# Laboratory results reported in US20230096380A1, “COMPOUNDS, COMPOSITIONS, METHODS FOR TREATING DISEASES AND NERVE DAMAGE, AND METHODS FOR PREPARING COMPOUNDS” (CHILDREN'S HOSPITAL MEDICAL CENTER, priority 2020, published 2023).
# “Also recorded” adds a separate entry of the source.
# What was measured:
# p300 = biological target: T1, p300 (Rattus norvegicus, UniProt A0ABK0LGW0); test: p300 activity inhibition (FIG. 2)
# T1 construct: Isolated rat OPCs were grown in Sato growth medium; endogenous in cells; host or cells: primary rat oligodendrocyte progenitor cells (OPCs) from newborn rat brain
# [1] = tested on: Rat oligodendrocyte progenitor cells (OPCs); test: Rat OPC differentiation, MBP and Olig2 immunostaining after 48 h treatment (FIG. 18); format: cell-based; conditions: for OPC differentiation (MBP, Olig2 immunostaining): at the indicated concentration
# Experimental: FIG. 18. Methods: This method generally follows that found in WANG et al. (2017) “miR-219 Cooperates with miR-338 in Myelination and Promotes Myelin Repair in the CNS” Dev Cell, Vol. 40, pp. 566-582. Rat oligodendrocyte progenitor cells (OPCs) were seeded on coverslip and treated with compounds, I-1, I-16, I-15, I-13, I-8, and I-17 at the indicated concentration. Cells were immunostained with a mature oligodendrocyte marker MBP and an oligodendrocyte lineage marker Olig2 after 48 h treatment.
# [2] = tested on: experimental autoimmune encephalomyelitis (EAE) demyelinating mouse model; test: EAE demyelinating mouse model induced by myelin peptide MOG35-55 (FIG. 7); format: in vivo; conditions: EAE mice
# Source text: FIG. 7. This method generally follows that found in WANG et al. (2017) “miR-219 Cooperates with miR-338 in Myelination and Promotes Myelin Repair in the CNS” Dev Cell, Vol. 40, pp. 566-582.
# EAE mice = test: Visual evoked potential (VEP) analyses on EAE mice (FIG. 17); format: in vivo; conditions: EAE mice at the peak of disease, versus Vehicle
# Experimental: FIG. 17. Visual evoked potential (VEP) analyses were carried out on EAE mice treated with Vehicle and compound I-1 at the peak of disease. This method generally follows that found in YOU et al. (2011) “Latency delay of visual evoked potential is a real measurement of demyelination in a rat model of optic neuritis” Invest Ophthalmol Vis Sci, Vol. 52, pp. 6911-6918.
# [3] = tested on: Primary oligodendrocyte progenitor cells (OPCs); test: Rat primary OPC differentiation, immunostaining for MBP, OLIG2 and/or cleaved Caspase 3 (FIGS. 1-6); format: cell-based
# Source text: FIGS. 1-6. Primary oligodendrocyte progenitor cells (OPCs) were obtained from newborn rat brains after preparation of mixed glial cultures. This method generally follows that found in ZHAO et al. (2018) “Dual Requirement of CHD8 for Chromatin Landscape Establishment and Histone Methyltransferase Recruitment to Promote CNS Myelination and Repair” Dev Cell, Vol. 45, pp. 753-768. Briefly, mixed glial cells were initially cultured in DMEM-F12 medium supplied with 15% FBS, then switched to B104 conditioned medium for 2 days before isolating OPCs by mechanical detachment in an orbital shaker. Isolated rat OPCs were grown in Sato growth medium supplemented with mitogens 10 ng/ml PDGF-AA and 10 ng/ml bFGF. OPCs were then treated with indicated compounds and immunostained with oligodendrocyte myelination markers MBP and OLIG2, and/or a cell death marker cleaved Caspase 3. T3 ((2S)-2-amino-3-[4-(4-hydroxy-3-iodophenoxy)-3,5-diiodophenyl]propanoic acid; CAS 6893-02-3) was used as a positive control; the T3 concentration used was 15 nm.
# T1 sequence (A0ABK0LGW0 1-2423): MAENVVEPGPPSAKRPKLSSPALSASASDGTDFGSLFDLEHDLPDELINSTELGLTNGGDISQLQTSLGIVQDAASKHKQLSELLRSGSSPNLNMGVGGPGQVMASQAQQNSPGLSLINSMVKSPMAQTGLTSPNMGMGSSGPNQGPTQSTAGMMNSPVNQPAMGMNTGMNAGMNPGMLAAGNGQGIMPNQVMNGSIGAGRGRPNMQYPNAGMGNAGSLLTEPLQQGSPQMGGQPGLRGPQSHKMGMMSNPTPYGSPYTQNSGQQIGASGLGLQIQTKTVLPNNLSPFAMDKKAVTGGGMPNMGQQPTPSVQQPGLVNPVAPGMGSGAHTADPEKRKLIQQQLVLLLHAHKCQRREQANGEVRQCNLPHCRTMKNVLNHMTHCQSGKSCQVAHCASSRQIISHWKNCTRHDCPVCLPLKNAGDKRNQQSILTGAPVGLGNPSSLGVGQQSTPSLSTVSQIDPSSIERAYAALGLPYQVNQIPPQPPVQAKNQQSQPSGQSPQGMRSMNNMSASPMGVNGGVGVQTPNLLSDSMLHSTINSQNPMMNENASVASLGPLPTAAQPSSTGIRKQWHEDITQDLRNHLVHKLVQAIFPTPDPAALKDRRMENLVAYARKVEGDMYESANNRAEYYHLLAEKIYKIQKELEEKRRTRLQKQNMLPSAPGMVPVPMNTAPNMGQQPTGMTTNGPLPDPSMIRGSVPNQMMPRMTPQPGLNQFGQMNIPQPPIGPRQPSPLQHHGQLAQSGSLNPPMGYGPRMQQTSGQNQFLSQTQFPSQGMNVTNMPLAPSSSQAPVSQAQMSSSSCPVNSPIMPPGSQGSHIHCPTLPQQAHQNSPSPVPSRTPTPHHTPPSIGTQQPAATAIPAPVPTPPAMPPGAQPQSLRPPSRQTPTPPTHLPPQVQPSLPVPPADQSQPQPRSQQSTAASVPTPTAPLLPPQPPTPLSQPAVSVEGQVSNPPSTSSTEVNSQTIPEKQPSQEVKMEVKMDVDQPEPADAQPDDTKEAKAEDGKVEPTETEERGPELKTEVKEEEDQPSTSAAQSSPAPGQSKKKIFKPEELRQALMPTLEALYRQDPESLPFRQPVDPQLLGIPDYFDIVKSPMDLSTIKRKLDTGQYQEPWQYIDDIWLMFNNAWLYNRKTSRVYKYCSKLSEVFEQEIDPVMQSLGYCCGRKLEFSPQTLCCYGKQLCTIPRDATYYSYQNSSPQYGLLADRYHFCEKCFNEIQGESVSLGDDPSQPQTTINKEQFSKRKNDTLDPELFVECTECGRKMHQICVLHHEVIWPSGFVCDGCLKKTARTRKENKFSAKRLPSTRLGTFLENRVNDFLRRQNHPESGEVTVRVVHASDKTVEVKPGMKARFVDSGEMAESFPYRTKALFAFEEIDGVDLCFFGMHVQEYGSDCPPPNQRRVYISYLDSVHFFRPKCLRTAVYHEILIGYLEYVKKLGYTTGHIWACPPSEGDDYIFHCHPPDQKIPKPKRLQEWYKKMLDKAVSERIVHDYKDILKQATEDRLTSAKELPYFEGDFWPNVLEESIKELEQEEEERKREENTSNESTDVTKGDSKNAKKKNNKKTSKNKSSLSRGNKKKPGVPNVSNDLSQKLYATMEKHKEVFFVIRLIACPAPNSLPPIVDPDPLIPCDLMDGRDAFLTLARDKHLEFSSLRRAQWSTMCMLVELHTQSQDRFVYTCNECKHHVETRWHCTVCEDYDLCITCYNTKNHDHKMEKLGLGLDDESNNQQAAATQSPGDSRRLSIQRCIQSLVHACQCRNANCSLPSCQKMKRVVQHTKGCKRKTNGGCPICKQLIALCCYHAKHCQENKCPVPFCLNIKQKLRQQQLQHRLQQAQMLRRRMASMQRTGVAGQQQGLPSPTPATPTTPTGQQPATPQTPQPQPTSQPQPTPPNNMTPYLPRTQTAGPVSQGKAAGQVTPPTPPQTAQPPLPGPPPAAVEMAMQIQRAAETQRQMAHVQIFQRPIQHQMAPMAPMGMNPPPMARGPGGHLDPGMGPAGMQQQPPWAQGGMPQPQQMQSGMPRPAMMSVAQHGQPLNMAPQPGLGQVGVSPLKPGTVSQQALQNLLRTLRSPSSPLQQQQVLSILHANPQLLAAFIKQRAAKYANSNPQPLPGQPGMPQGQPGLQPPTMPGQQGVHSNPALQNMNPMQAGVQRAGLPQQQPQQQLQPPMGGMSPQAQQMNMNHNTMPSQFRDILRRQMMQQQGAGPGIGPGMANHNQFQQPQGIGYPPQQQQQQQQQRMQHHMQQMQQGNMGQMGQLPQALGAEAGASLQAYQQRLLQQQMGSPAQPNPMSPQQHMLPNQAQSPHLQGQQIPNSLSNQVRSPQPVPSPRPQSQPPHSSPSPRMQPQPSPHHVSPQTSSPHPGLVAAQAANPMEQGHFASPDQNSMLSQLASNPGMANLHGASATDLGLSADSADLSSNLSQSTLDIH
smiles,measurement,setting,value
CNC(=O)Nc1ccc2c(c1)CC[C@@]21OC(=O)N(CC(=O)N(Cc2ccc(F)cc2)[C@@H](C)C(F)(F)F)C1=O [Compound A485],p300 activity,p300,inhibits p300 activity
Nc1ccccc1NC(=O)c1cnc(NCc2ccccc2)cn1 [Compound I-1],"OPC differentiation (MBP, Olig2 immunostaining)",[1],promote OPC differentiation
same,functional regeneration,[2],promotes functional regeneration
same,EAE disease severity / motor function (clinical scores),[2]; MOG35-55 induced,improved motor function reflected in clinical scores; also recorded: reduced EAE disease severity
same,VEP N1 signals,EAE mice,showed greater and faster conducting VEP N1 signals
same,myelin MBP+ cell formation 3 days after treatment,"[3]; 3 days after treatment, FIG. 6",enhances myelin MBP+ cell formation
same,myelin MBP+ cell formation,[3]; FIG. 5,enhances myelin MBP+ cell formation
same,oligodendrocyte differentiation and myelination in vitro,"[3]; rat OPCs, MBP/OLIG2 immunostaining, FIGS. 1-6",promoted oligodendrocyte differentiation and myelination in vitro
same,OPC differentiation,"[3]; rat primary OPCs, FIGS. 1, 3, 4",promotes oligodendrocyte progenitor cell (OPC) differentiation
same,myelin formation in presence of A485,"[3]; with p300 inhibitor A485, FIG. 2",appears to overcome A485 inhibition to enhance myelin formation
Nc1ccccc1NC(=O)c1cnc(NC(c2ccccc2)c2ccccc2)cn1 [Compound I-8],activity in promoting OPC into mature oligodendrocytes relative to compound I-1,[1],comparable activity with compound I-1
same,"OPC differentiation (MBP, Olig2 immunostaining)",[1],promote OPC differentiation
Nc1ccccc1NC(=O)c1cnc(NC(=O)C(c2ccccc2)c2ccccc2)cn1 [Compound I-13],"OPC differentiation (MBP, Olig2 immunostaining)",[1],promote OPC differentiation
Nc1ccccc1NC(=O)c1cnc(NC2=N[C@H](c3ccccc3)[C@H](c3ccccc3)O2)cn1 [Compound I-15],"OPC differentiation (MBP, Olig2 immunostaining)",[1],promote OPC differentiation
CC(C(=O)Nc1cnc(C(=O)Nc2ccccc2N)cn1)c1ccccc1 (centres unmarked) [Compound I-16],"OPC differentiation (MBP, Olig2 immunostaining)",[1],promote OPC differentiation
Nc1ccccc1NC(=O)c1cnc(NC(=O)C(N)c2ccccc2)cn1 (centres unmarked) [Compound I-17],activity in promoting OPC into mature oligodendrocytes relative to compound I-1,[1],comparable activity with compound I-1
same,"OPC differentiation (MBP, Olig2 immunostaining)",[1],promote OPC differentiation
